According to patent publication US20010044463A1, “Methods for controlling gram negative bacteria in mammals” (priority 1997, published 2001):
≈ marks a conversion by molar mass, not a printed value.

Key:
Staph ATCC 14775 = experiment: Blood agar plate growth inhibition, control organism; format: cell-based
Description: (§1) Monensin (Sigma Cat. No. M-5273) was dissolved in 100% absolute ethanol (AAPER Alcohol and Chemical Co.) at a concentration of 20 mg/ml. Subsequent dilutions were made in ethanol immediately prior to use. Nigericin (Sigma Cat. No. N-7143) was dissolved in DMSO at 2 mg/ml. Subsequent dilutions were made in BHI medium (Brain heart infusion broth, Difco #0037-07-0) immediately prior to use.
(§2) Blood agar base (BAB) was prepared containing 1.5% agar and autoclaved. 20 ml samples of autoclaved BAB were poured into 50 mL tubes and placed in a 56° C. water bath.
(§3) 100 μl of a drug (final concentration equivalent to 1:200 of original concentration) and 1.2 ml of sheep blood (Colorado Senun Company # CS-1112) (blood diluted in a 1:1 buffer providing a 3% concentration of blood per 20 ml medium sample) were added to 20 ml sample of media and mixed. The mixed media preparation was poured into a petri dished and allowed to solidify.
Prior to inoculation of petri plates, bacteria or cultures were examined for morphology under a phase microscope to confirm motility and physical characteristics, e.g., spiral shaped. The organisms were washed off the plate into PBS (Phosphate buffered saline) (80.0 g NaCl, 2.0 g KCl, 2.4 g KH2PO4 11.5 g Na2HPO4 or 24.4 g Na2HPO4/2H2O per 1 liter deionized water, pH 7.2, sterilized by autoclaving) and diluted into BHI at a concentration of 10^8/ml (O.D. of 0.3 units diluted 1:30). Ten microliters of solution containing 10^6 organisms were spread onto a petri plate and grown under microaerophilic conditions for 3 days unless specified. […]
(§4) Inhibition of growth was determined by the amount of colonies present within the petri plate. The following factors were used for growth inhibition: ±=0-20 colonies, +=20-50 colonies, ++=50-200 colonies and +++=200+ colonies.

H. pylori ATCC 43504 = experiment: Minimum Inhibitory Concentration (MIC) blood agar plate growth inhibition; format: cell-based, Helicobacter pylori
Description: Subsequent dilutions were made in ethanol immediately prior to use. […] Subsequent dilutions were made in BHI medium (Brain heart infusion broth, Difco #0037-07-0) immediately prior to use.
as §2
The mixed media preparation was poured into a petri dished and allowed to solidify.
(§5) Prior to inoculation of petri plates, bacteria or cultures were examined for morphology under a phase microscope to confirm motility and physical characteristics, e.g., spiral shaped. The organisms were washed off the plate into PBS (Phosphate buffered saline) (80.0 g NaCl, 2.0 g KCl, 2.4 g KH2PO4 11.5 g Na2HPO4 or 24.4 g Na2HPO4/2H2O per 1 liter deionized water, pH 7.2, sterilized by autoclaving) and diluted into BHI at a concentration of 10^8/ml (O.D. of 0.3 units diluted 1:30). Ten microliters of solution containing 10^6 organisms were spread onto a petri plate and grown under microaerophilic conditions for 3 days unless specified. Control organisms were grown under microaerophilic conditions.
as §4

[1] = tested on: H. pylori (urease positive) ATCC Number 51652; experiment: as above; format: cell-based, Helicobacter pylori; conditions: Table VIII
Description: as §1, §2, §3, §5, §4

[2] = tested on: H. pylori (urease negative) (Wild strain of ATCC 43504); experiment: as above; format: cell-based, Helicobacter pylori; conditions: Table III
Description: as §1, §2, §3, §5, §4

CC[C@@]1([C@@H]2O[C@@H]([C@H]3O[C@@](O)(CO)[C@H](C)C[C@@H]3C)C[C@@H]2C)CC[C@H]([C@]2(C)CC[C@]3(C[C@H](O)[C@@H](C)[C@@H]([C@@H](C)[C@@H](OC)[C@H](C)C(=O)O)O3)O2)O1 [Monensin, monensin]
growth (amount of colonies present within the petri plate) (Staph ATCC 14775; Table XIV, Non-microaerophilic conditions, final drug concentration 0.1 ng/ml): (+++) (+++=200+ colonies)
growth (amount of colonies present within the petri plate) (Staph ATCC 14775; Table XIV, Non-microaerophilic conditions, final drug concentration 1 ng/ml): (+++) (+++=200+ colonies)
growth (amount of colonies present within the petri plate) (Staph ATCC 14775; Table XIV, Non-microaerophilic conditions, final drug concentration 10 ng/ml): (+++) (+++=200+ colonies)
growth (amount of colonies present within the petri plate) (Staph ATCC 14775; Table XIV, Non-microaerophilic conditions, final drug concentration 100 ng/ml): (+++) (+++=200+ colonies)
growth (amount of colonies present within the petri plate) (Staph ATCC 14775; Table XIV, Non-microaerophilic conditions, final drug concentration 1 μg/ml): (+++***) (+++=200+ colonies)
growth (amount of colonies present within the petri plate) (Staph ATCC 14775; Table XIV, Non-microaerophilic conditions, final drug concentration 10 μg/ml): No growth
growth (amount of colonies present within the petri plate) (Staph ATCC 14775; Table XVI, Non-aerophilic conditions, final drug concentration 0.098 μg/ml): (+++) (+++=200+ colonies)
growth (amount of colonies present within the petri plate) (Staph ATCC 14775; Table XVI, Non-aerophilic conditions, final drug concentration 0.195 μg/ml): (+++) (+++=200+ colonies)
growth (amount of colonies present within the petri plate) (Staph ATCC 14775; Table XVI, Non-aerophilic conditions, final drug concentration 0.39 μg/ml): (+++) (+++=200+ colonies)
growth (amount of colonies present within the petri plate) (Staph ATCC 14775; Table XVI, Non-aerophilic conditions, final drug concentration 0.78 μg/ml): (++) (++=50-200 colonies)
growth (amount of colonies present within the petri plate) (Staph ATCC 14775; Table XVI, Non-aerophilic conditions, final drug concentration 1.56 μg/ml): (+)^2 (+=20-50 colonies)
growth (amount of colonies present within the petri plate) (Staph ATCC 14775; Table XVI, Non-aerophilic conditions, final drug concentration 3.125 μg/ml): (+)^2 (+=20-50 colonies)
growth (amount of colonies present within the petri plate) (Staph ATCC 14775; Table XVI, Non-aerophilic conditions, final drug concentration 6.25 μg/ml): (+)^2 (+=20-50 colonies)
growth (amount of colonies present within the petri plate) (Staph ATCC 14775; Table XVI, Non-aerophilic conditions, final drug concentration 12.5 μg/ml): (±)^1 (±=0-20 colonies)
growth (amount of colonies present within the petri plate) (Staph ATCC 14775; Table XVI, Non-aerophilic conditions, final drug concentration 25 μg/ml): (±)^1 (±=0-20 colonies)
growth (amount of colonies present within the petri plate) (Staph ATCC 14775; Table XVI, Non-aerophilic conditions, final drug concentration 50 μg/ml): No growth
growth (amount of colonies present within the petri plate) (Staph ATCC 14775; Table XVI, Non-aerophilic conditions, final drug concentration 100 μg/ml): No growth
MIC (H. pylori ATCC 43504; Helicobacter pylori, ATCC43504): 0.39 µg/mL (≈ 0.581 µM)
growth (amount of colonies present within the petri plate) (H. pylori ATCC 43504; Table I, final drug concentration 0.1 ng/ml): (+++) (+++=200+ colonies)
growth (amount of colonies present within the petri plate) (H. pylori ATCC 43504; Table I, final drug concentration 1 ng/ml): (+) (+=20-50 colonies)
growth (amount of colonies present within the petri plate) (H. pylori ATCC 43504; Table I, final drug concentration 10 ng/ml): (+) (+=20-50 colonies)
growth (amount of colonies present within the petri plate) (H. pylori ATCC 43504; Table I, final drug concentration 100 ng/ml): No growth
growth (amount of colonies present within the petri plate) (H. pylori ATCC 43504; Table I, final drug concentration 1 μg/ml): No growth
growth (amount of colonies present within the petri plate) (H. pylori ATCC 43504; Table I, final drug concentration 10 μg/ml): No growth
growth (amount of colonies present within the petri plate) (H. pylori ATCC 43504; Table II, urease positive, final drug concentration 1 ng/ml): (+++) (+++=200+ colonies)
growth (amount of colonies present within the petri plate) (H. pylori ATCC 43504; Table II, urease positive, final drug concentration 100 ng/ml): (+++) (+++=200+ colonies)
growth (amount of colonies present within the petri plate) (H. pylori ATCC 43504; Table II, urease positive, final drug concentration 10 μg/ml): No growth
growth (amount of colonies present within the petri plate) (H. pylori ATCC 43504; Table II, urease positive, final drug concentration 0.1 nglml): (+++) (+++=200+ colonies)
growth (amount of colonies present within the petri plate) (H. pylori ATCC 43504; Table IV, urease positive, final drug concentration 0.1 ng/ml): (+++) (+++=200+ colonies)
growth (amount of colonies present within the petri plate) (H. pylori ATCC 43504; Table IV, urease positive, final drug concentration 1 ng/ml): (+++) (+++=200+ colonies)
growth (amount of colonies present within the petri plate) (H. pylori ATCC 43504; Table IV, urease positive, final drug concentration 10 ng/ml): (+++) (+++=200+ colonies)
growth (amount of colonies present within the petri plate) (H. pylori ATCC 43504; Table IV, urease positive, final drug concentration 100 ng/ml): (+++) (+++=200+ colonies)
growth (amount of colonies present within the petri plate) (H. pylori ATCC 43504; Table IV, urease positive, final drug concentration 1 μg/ml): No growth
growth (amount of colonies present within the petri plate) (H. pylori ATCC 43504; Table IV, urease positive, final drug concentration 10 μg/ml): No growth
growth (amount of colonies present within the petri plate) (H. pylori ATCC 43504; Table V, in the presence of 10 mM urea, final drug concentration 0.1 ng/ml, Nigericin assay done in duplicate): (+++) (+++=200+ colonies)
growth (amount of colonies present within the petri plate) (H. pylori ATCC 43504; Table V, in the presence of 10 mM urea, final drug concentration 1 ng/ml, Nigericin assay done in duplicate): (+++) (+++=200+ colonies)
growth (amount of colonies present within the petri plate) (H. pylori ATCC 43504; Table V, in the presence of 10 mM urea, final drug concentration 10 ng/ml, Nigericin assay done in duplicate): (+++) (+++=200+ colonies)
growth (amount of colonies present within the petri plate) (H. pylori ATCC 43504; Table V, in the presence of 10 mM urea, final drug concentration 100 ng/ml, Nigericin assay done in duplicate): (+++) (+++=200+ colonies)
growth (amount of colonies present within the petri plate) (H. pylori ATCC 43504; Table V, in the presence of 10 mM urea, final drug concentration 1 μg/ml, Nigericin assay done in duplicate): No growth
growth (amount of colonies present within the petri plate) (H. pylori ATCC 43504; Table V, in the presence of 10 mM urea, final drug concentration 10 μg/ml, Nigericin assay done in duplicate): No growth
growth (amount of colonies present within the petri plate) (H. pylori ATCC 43504; Table VI, in the presence of 2.5 mM urea, final drug concentration 1 ng/ml): (+++) (+++=200+ colonies)
growth (amount of colonies present within the petri plate) (H. pylori ATCC 43504; Table VI, in the presence of 2.5 mM urea, final drug concentration 10 ng/ml): (+++) (+++=200+ colonies)
growth (amount of colonies present within the petri plate) (H. pylori ATCC 43504; Table VI, in the presence of 2.5 mM urea, final drug concentration 1 μg/ml): No growth
growth (amount of colonies present within the petri plate) (H. pylori ATCC 43504; Tables IX-XIII, final drug concentration 0.098 μg/ml): (+++) (+++=200+ colonies)
growth (amount of colonies present within the petri plate) (H. pylori ATCC 43504; Tables IX-XIII, final drug concentration 0.195 μg/ml): (++) (++=50-200 colonies)
growth (amount of colonies present within the petri plate) (H. pylori ATCC 43504; Tables IX-XIII, final drug concentration 0.39 μg/ml): (±) (±=0-20 colonies)
growth (amount of colonies present within the petri plate) (H. pylori ATCC 43504; Tables IX-XIII, final drug concentration 0.78 μg/ml): No growth
growth (amount of colonies present within the petri plate) (H. pylori ATCC 43504; Tables IX-XIII, final drug concentration 6.25 μg/ml): No growth
growth (amount of colonies present within the petri plate) (H. pylori ATCC 43504; Tables IX-XIII, final drug concentration 12.5 μg/ml): No growth
growth (amount of colonies present within the petri plate) (H. pylori ATCC 43504; Tables IX-XIII, final drug concentration 25 μg/ml): No growth
growth (amount of colonies present within the petri plate) (H. pylori ATCC 43504; Tables IX-XIII, final drug concentration 50 μg/ml): No growth
growth (amount of colonies present within the petri plate) (H. pylori ATCC 43504; Tables IX-XIII, final drug concentration 100 μg/ml): No growth
growth (amount of colonies present within the petri plate) ([1]; final drug concentration 0.098 μg/ml): No growth
growth (amount of colonies present within the petri plate) ([1]; final drug concentration 0.195 μg/ml): No growth
growth (amount of colonies present within the petri plate) ([1]; final drug concentration 0.39 μg/ml): No growth
growth (amount of colonies present within the petri plate) ([1]; final drug concentration 0.78 μg/ml): No growth
growth (amount of colonies present within the petri plate) ([1]; final drug concentration 1.56 μg/ml): No growth
growth (amount of colonies present within the petri plate) ([1]; final drug concentration 3.125 μg/ml): No growth
growth (amount of colonies present within the petri plate) ([1]; final drug concentration 6.25 μg/ml): No growth
growth (amount of colonies present within the petri plate) ([1]; final drug concentration 12.5 μg/ml): No growth
growth (amount of colonies present within the petri plate) ([1]; final drug concentration 25 μg/ml): No growth
growth (amount of colonies present within the petri plate) ([1]; final drug concentration 50 μg/ml): No growth
growth (amount of colonies present within the petri plate) ([1]; final drug concentration 100 μg/ml): No growth
growth (amount of colonies present within the petri plate) ([2]; final drug concentration 0.1 ng/ml): (+++) (+++=200+ colonies)
growth (amount of colonies present within the petri plate) ([2]; final drug concentration 1 ng/ml): (+++) (+++=200+ colonies)
growth (amount of colonies present within the petri plate) ([2]; final drug concentration 10 ng/ml): (+++) (+++=200+ colonies)
growth (amount of colonies present within the petri plate) ([2]; final drug concentration 100 ng/ml): (+++) (+++=200+ colonies)
growth (amount of colonies present within the petri plate) ([2]; final drug concentration 1 μg/ml): No growth
growth (amount of colonies present within the petri plate) ([2]; final drug concentration 10 μg/ml): No growth
